For nine compounds, Activity, EBV-EA activation remaining (% of TPA control) and viability results are on record in ChEMBL document CHEMBL1150883, “Antitumor-promoting naphthoquinones from Catalpa ovata” (J Nat Prod, 1998).

What all share (format): cell-based
Series [1] has as its system Raji. In words: Inhibition of 12-O-tetradecanoylphorbol-13-acetate induced EBV-early antigen activation in human Raji cells at 1000 molar ratio per 32 pmol/ml TPA by immunofluorescence technique relative to control. The arrangement: scale not given: the % may be the effect or the level left. The note with it: human gammaherpesvirus 4.
The test system of series [2] is Raji. In words: Inhibition of 12-O-tetradecanoylphorbol-13-acetate induced EBV-early antigen activation in human Raji cells at 10 molar ratio per 32 pmol/ml TPA by immunofluorescence technique relative to control. The arrangement: Activity: scale not given: the % may be the effect or the level left. The note with it: human gammaherpesvirus 4.
Series [3] can be described thus: Cytotoxicity against human Raji cells assessed as cell viability at 1000 molar ratio after 48 hrs. The note with it: read-out: Activity.
Series [4] can be described thus: Cytotoxicity against human Raji cells assessed as cell viability at 500 molar ratio after 48 hrs. The note with it: read-out: Activity.

Molecules are shown by their SMILES.

`C=C(C)[C@@H]1OC2=C(C(=O)c3ccccc3C2=O)[C@@H]1O`: the Activity in the series on Raji [1] is 0%. The EBV-EA activation remaining (% of TPA control) in the series on Raji [2] stood at 88.5%. Moreover, the viability at 48 h, 1000 molar ratio in series [3] stood at 30%. Also, the viability at 48 h, 500 molar ratio in series [4] was determined as 60%.

Turning to `CC1=C(/C=C/C(C)=C/C=C/C(C)=C/C=C/C=C(C)/C=C/C=C(C)/C=C/C2=C(C)CCCC2(C)C)C(C)(C)CCC1` [BETA CAROTENE], the Activity with Raji [1] was determined as 8.6%. Moreover, the EBV-EA activation remaining (% of TPA control) in the series with Raji [2] worked out at 100%. In series [3], the viability at 48 h, 1000 molar ratio amounted to 70%.

As to `CC1(C)CC=C(C2OC(=O)c3ccccc32)C(=O)O1` (stereo not drawn) [CATALPALACTONE], the Activity in the series on Raji [1] is 0%. Moreover, in the series on Raji [2], the EBV-EA activation remaining (% of TPA control) was 89.5%. Also, the viability at 48 h, 1000 molar ratio in series [3] was determined as 70%.

For the compound `CC1(C)C[C@H](O)C2=C(O1)C(=O)c1c(O)cccc1C2=O`, the Activity in the series with Raji [1] turned out to be 36.1%. For the same compound, in the series on Raji [2], the EBV-EA activation remaining (% of TPA control) came to 100%. Moreover, the viability at 48 h, 1000 molar ratio in series [3] came out at 60%.

`C=C(C)[C@H]1CC2=C(O1)C(=O)c1c(OC)cccc1C2=O`: the Activity is 0% in the series with Raji [1] and 100% in the series with Raji [2]. The viability at 48 h, 1000 molar ratio in series [3] is 60%.

On to `COc1cccc2c1C(=O)C1=C(CCC(C)(C)O1)C2=O`, for which, in the series with Raji [1], the Activity was found to be 83.8%. Moreover, the EBV-EA activation remaining (% of TPA control) in the series with Raji [2] was determined as 100%. In series [3], the viability at 48 h, 1000 molar ratio amounted to 70%.

In the case of `CC1(C)C[C@H](O)C2=C(O1)C(=O)c1ccccc1C2=O`, the Activity with Raji [1] was 11.2%. Moreover, in the series with Raji [2], the EBV-EA activation remaining (% of TPA control) is 86.7%. In addition, the viability at 48 h, 1000 molar ratio in series [3] is 60%.

Regarding `CC1(C)C[C@H](O)[C@H]2C(=O)c3ccccc3[C@@H](O)[C@@H]2O1`, in the series on Raji [1], the Activity worked out at 0%. Also, the EBV-EA activation remaining (% of TPA control) in the series with Raji [2] amounted to 93.8%. Further, the viability at 48 h, 1000 molar ratio in series [3] was 70%.

Consider `COc1cccc2c1C(=O)C1=C(C(=O)CC(C)(C)O1)C2=O`, for which the Activity in the series with Raji [1] turned out to be 32.7%. Moreover, the EBV-EA activation remaining (% of TPA control) in the series with Raji [2] was determined as 100%. The viability at 48 h, 1000 molar ratio in series [3] was found to be 70%.
